Test results reported in US20060160906A1, “Polyamine analogs as therapeutic agents for ocular diseases” (priority 2004, published 2006).
Entries after “also recorded” stand apart in the source; their conditions may differ.

Key:
[1] = tested on: choroidal neovascularization (CNV) at Bruch's membrane rupture sites; experiment: Mouse model of laser-induced choroidal neovascularization (rupture of Bruch's membrane), CNV area on choroidal flat mounts; type: in vivo, C57BL/6J mice
[2] = Tolerability of intraperitoneal injections in mice; type: in vivo
[3] = tested on: retinal neovascularization; experiment: Oxygen-induced ischemic retinopathy, retinal neovascularization; type: in vivo, neonatal C57BL/6 mice; conditions: 100 μg CGC-11144, 1 mg CGC-11047, 750 μg CGC-11093
Protocol: Ischemic retinopathy can be produced in neonatal C57BL/6 mice as described (Smith, L. E et al., Invest. Opthalmol. Vis. Sci. 35: 101-111 (1994)) and serves as a model for retinopathy of prematurity (ROP). Post-natal day 7 (P7) mice and their mothers were placed in an airtight incubator and exposed to an atmosphere of 75±3% oxygen for 5 days. Incubator temperature was maintained at 23±2° C. and oxygen was continuously monitored with a PROOX model 110 oxygen controller (Reming Bioinstruments Co., Redfield, N.Y.). At post-natal day 12, mice were placed back in room air and were given a periocular injection of 3 μl containing 100 μg of CGC-11144 (n=4), 1 mg of CGC-11047 (n=4), 750 μg of CGC-11093 (n=4) or vehicle. On post-natal day 17 (P17) the treated and control mice were euthanized and the amount of retinal neovascularization was measured.
For measurement of retinal neovascularization, eyes were removed and fixed in 2% paraformaldehyde in phosphate buffered saline (PBS) for one hour and rinsed twice in 25% sucrose in PBS. Specimens were incubated in 25% sucrose in PBS overnight and embedded in OCT compound (Miles Diagnostics, Elkhart, Ind.),). 10 μm frozen sections were post-fixed for 15 minutes in 0.5% glutaraldehyde in PBS and washed in PBS. Sections were also histochemically stained with biotinylated Griffonia simplicifolia lectin B4 (GSA, Vector Laboratories, Burlingame, Calif.), which selectively binds to vascular cells. Slides were incubated in methanol/H2O2 for 10 minutes at 4° C., washed with 0.05 M Tris-buffered saline, pH 7.6 (TBS), and incubated for 30 minutes in 10% normal porcine serum. Slides were incubated 2 hours at room temperature with biotinylated GSA and after rinsing with 0.05M TBS, they were incubated with avidin coupled to peroxidase (Vector Laboratories, Burlingame, Calif.) for 30 minutes at room temperature. After being washed for 10 minutes with 0.05M TBS, slides were incubated with diaminobenzidine (Research Genetics, Huntsville, Ala.) to give a brown reaction product.
To perform quantitative assessments, 10 μm frozen serial sections were cut from the iris root on one side of the eye to the iris root on the opposite side of the eye and every tenth section was stained with GSA. Retinas were examined with an Axioskop microscope and images were digitized using a 3 CCD color video camera and a frame grabber. Image-Pro Plus software was used to delineate GSA-stained vascular cells above the internal limiting membrane and the total area of staining was measured.
To investigate the effect of these agents on regression of retinal neovascularization, ischemic retinopathy was induced and left untreated until P17, when the baseline amount of retinal neovascularization was measured in one group of mice. From post-natal days 17 to 20 (P17 to P20) the remainder of the mice were given daily periocular injections of 100 μg of CGC-11144 (n=4), 1 mg of CGC-11047 (n=4), 750 μg of CGC-11093 (n=4) or vehicle. On P20 the mice were euthanized and the amount of retinal neovascularization in the treated and control mice was measured as described above.

[4] = tested on: subretinal neovascularization; experiment: Rhodopsin/VEGF transgenic mice, subretinal neovascularization; type: in vivo, rhodopsin/VEGF transgenic mice (V6 mice); conditions: periocular injection at P7, measured P21; 100 μg CGC-11144, 1 mg CGC-11047, 750 μg CGC-11093
Source text: Transgenic mice (V6 mice) in which the rhodopsin promoter drives expression of VEGF165 in photoreceptors have onset of VEGF expression at post-natal day 7 (P7) and soon after begin to develop neovascularization originating from the deep capillary bed that grows through the photoreceptor layer into the subretinal space. (Okamoto N et al., Amer. J. Pathol. 151: 281-91 (1997); Tobe T et al., Invest. Ophthalmol. Vis. Sci. 39: 180-188 (1998)). Hemizygous transgene positive mice were given a periocular injection of 100 μg of CGC-11144 (n=3), 1 mg of CGC-11047 (n=3), 750 μg of CGC-11093 (n=3) or vehicle (n=7) at P7. At post-natal day 21 (P21), mice were euthanized and the amount of subretinal neovascularization was quantified as previously described (Tobe, ibid.). Briefly, mice were anesthetized, perfused with fluorescein-labeled dextran, and the number of neovascular lesions on the outer surface of the retina and their total area were measured on retinal flat mounts by image analysis as described in Example 1.

CCNCCCCNCCCCNCCCCNCCCCNC/C=C/CNCCCCNCCCCNCCCCNCCCCNCC.Cl.Cl.Cl.Cl.Cl.Cl.Cl.Cl.Cl.Cl [CGC-11144]
area of CNV vs day 7 baseline and vehicle fellow eyes (regression) ([1]; daily periocular injections days 7 to 14, 200 μg CGC-11144, 100 μg DFMO, or both): significant reduction in CNV area; also recorded: significantly less
area of CNV vs controls (no injection or vehicle-injected fellow eye) ([1]; intraocular 20 μg on days 0 and 7 after rupture): significantly less CNV than corresponding controls
decrease in area of CNV compared to vehicle-treated or untreated eyes ([1]; intravitreous 20 μg on days 0 and 7 after rupture, measured day 14): approximately 40%
area of established CNV vs vehicle fellow eyes and vs 7 day baseline (regression) ([1]; intravitreous 20 μg on days 7 and 10, measured day 14): significantly smaller in area
size (area) of CNV lesions vs vehicle ([1]; ip 10 mg/kg twice a week, 2 weeks after rupture of Bruch's membrane, 10 mg/kg): statistically significant reductions in the size of CNV lesions; also recorded: small, but significant reductions in CNV
size (area) of CNV lesions vs vehicle ([1]; ip 20 mg/kg twice a week, surviving mice, 20 mg/kg): small statistically significant reductions in CNV lesion size; also recorded: small, but significant reductions in CNV
decrease in CNV area compared to vehicle-treated eyes ([1]; periocular 200 μg 3 times a week, day 14): 40%
area of established CNV vs vehicle fellow eyes and 7 day baseline (regression) ([1]; periocular 200 μg on days 7, 10 and 13, measured day 14): significant decrease in area of CNV; also recorded: significantly smaller
area of CNV vs controls (no injection or vehicle-injected fellow eye) ([1]; periocular 200 μg three times a week, day 14): significantly less CNV than corresponding controls
amount of CNV on day 14 vs vehicle (suppression) ([1]; single periocular injection at time of rupture, 200 μg CGC-11144, 2 mg CGC-11047, 1.5 mg CGC-11093): significantly reduced the amount of CNV
amount of CNV vs vehicle (duration of effect) ([1]; single periocular injection one week prior to rupture, 200 μg CGC-11144, 2 mg CGC-11047, 1.5 mg CGC-11093): significant reduction of the amount of CNV
amount of CNV vs vehicle (duration of effect) ([1]; single periocular injection two weeks prior to rupture, 200 μg CGC-11144, 2 mg CGC-11047, 1.5 mg CGC-11093): no significant effect
tolerability ([2]; ip 10 mg/kg twice a week): well tolerated
tolerability ([2]; ip 20 mg/kg twice a week, 2-week treatment period): not well tolerated and several mice died
amount of retinal neovascularization at P20 vs vehicle (regression) ([3]; daily periocular injections P17 to P20): significantly less neovascularization
amount of retinal neovascularization at P17 vs vehicle (suppression) ([3]; periocular injection at P12): significantly less
subretinal neovascularization vs vehicle [4]: significantly less subretinal neovascularization
